# Activity calls are given as the source filed them.
# Assays:
# Type in all cases: functional
# [1] = biological target: T1, High affinity choline transporter 1 (Homo sapiens, UniProt Q9GZV3); test: CHT inhibitors, dose response, cell-based, 5-point CRC, membrane potential dye (AID 504840)
# T1 sequence (Q9GZV3 whole entry): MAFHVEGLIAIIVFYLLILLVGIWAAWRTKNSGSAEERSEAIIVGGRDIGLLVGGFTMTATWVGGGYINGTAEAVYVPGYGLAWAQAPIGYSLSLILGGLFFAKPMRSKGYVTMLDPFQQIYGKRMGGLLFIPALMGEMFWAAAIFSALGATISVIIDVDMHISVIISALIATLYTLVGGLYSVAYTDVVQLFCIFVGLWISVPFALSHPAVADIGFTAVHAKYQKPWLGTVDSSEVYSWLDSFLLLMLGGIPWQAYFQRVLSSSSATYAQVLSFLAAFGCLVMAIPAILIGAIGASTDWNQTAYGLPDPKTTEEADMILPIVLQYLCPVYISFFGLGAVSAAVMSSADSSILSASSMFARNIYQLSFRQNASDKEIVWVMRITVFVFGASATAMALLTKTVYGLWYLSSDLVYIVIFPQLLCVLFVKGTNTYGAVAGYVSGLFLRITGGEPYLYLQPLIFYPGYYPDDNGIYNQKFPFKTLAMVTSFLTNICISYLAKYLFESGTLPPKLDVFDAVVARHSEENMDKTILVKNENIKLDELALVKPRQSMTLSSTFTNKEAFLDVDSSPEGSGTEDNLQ
# [2] = biological target: T1, High affinity choline transporter 1; test: CHT inhibitors, dose response, cell-based, 10-point CRC, membrane potential dye (AID 588401);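 note: membrane potential dye fluorescence of choline-evoked depolarization via CHT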
# [3] = A cytotoxicity screen of small molecule inhibitors of the PhoP region in Salmonella typhi identified in the primary screen. [Related pubchem assays: 1850, 1864, 1985 ]
# Aurora kinase A = Aurora kinase A (Homo sapiens, UniProt O14965);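 note: value from the Navigating the Kinome kinase panel profiling, panel entry STK6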
# [4] = biological target: Glycogen synthase kinase-3 beta (Homo sapiens, UniProt P49841);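 note: value comes from a broad kinome profiling panel, with GSK3B as the panel member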
# [5] = biological target: C-X-C chemokine receptor type 5 (Homo sapiens, UniProt P32302); test: CXCR5 receptor antagonists, SAR follow-up, selectivity assay for CCR6 antagonist project, cell-based, beta-arrestin, luminescence, CHO-K1 PathHunter (AID 540340)
# [6] = biological target: T2, C-C chemokine receptor type 6 (Homo sapiens, UniProt P51684); test: CCR6 receptor antagonists, SAR follow-up, cell-based, luminescent beta-arrestin readout (AID 540334)
# T2 sequence (P51684 whole entry): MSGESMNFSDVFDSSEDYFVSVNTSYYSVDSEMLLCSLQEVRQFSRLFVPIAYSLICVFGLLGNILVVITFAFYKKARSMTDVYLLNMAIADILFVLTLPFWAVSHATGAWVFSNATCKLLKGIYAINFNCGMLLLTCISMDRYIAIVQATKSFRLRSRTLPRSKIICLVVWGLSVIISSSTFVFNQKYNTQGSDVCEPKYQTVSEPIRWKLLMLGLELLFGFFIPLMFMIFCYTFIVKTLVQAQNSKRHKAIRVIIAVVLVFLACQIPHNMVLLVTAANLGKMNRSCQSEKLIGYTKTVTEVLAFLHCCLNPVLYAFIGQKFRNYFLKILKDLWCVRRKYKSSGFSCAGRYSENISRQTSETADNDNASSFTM
# Apelin receptor = Apelin receptor (Homo sapiens, UniProt P35414); test: APJ beta-arrestin recruitment antagonism, SAR follow-up, selectivity assay for CCR6 antagonist project, cell-based, luminescent, enzyme-fragment complementation (AID 588359)
# [7] = biological target: Serine/threonine-protein kinase pim-3 (Homo sapiens, UniProt Q86V86);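 note: value obtained as one member of a broad kinase panel profiling effort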
# [8] = biological target: Serine/threonine-protein kinase BRSK1 (Homo sapiens, UniProt Q8TDC3);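 note: measured within a kinome-wide kinase panel, with the target listed as KIAA1811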
# [9] = biological target: Casein kinase II subunit alpha (Homo sapiens, UniProt P68400)
# [10] = biological target: Serine/threonine-protein kinase pim-1 (Homo sapiens, UniProt P11309)
# [11] = biological target: Dual specificity tyrosine-phosphorylation-regulated kinase 1B (Homo sapiens, UniProt Q9Y463); test: Navigating the Kinome. Panel member name: DYRK1B
# Activin receptor type-1 = Activin receptor type-1 (Homo sapiens, UniProt Q04771); test: Navigating the Kinome. Panel member name: ACVR1
# [12] = biological target: Leucine-rich repeat serine/threonine-protein kinase 2 (Homo sapiens, UniProt Q5S007);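 note: value from a broad kinome-wide panel profiling study in which LRRK2 was one of the kinases tested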
# [13] = biological target: Platelet-derived growth factor receptor alpha (Homo sapiens, UniProt P16234); test: Navigating the Kinome. Panel member name: PDGFRA
# [14] = biological target: Leukocyte tyrosine kinase receptor (Homo sapiens, UniProt P29376); test: Navigating the Kinome. Panel member name: LTK
# [15] = biological target: Tyrosine-protein kinase JAK2 (Homo sapiens, UniProt O60674);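 note: JAK2 tested as one member of a kinase panel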
# Tyrosine-protein kinase JAK2, sequence (O60674 whole entry): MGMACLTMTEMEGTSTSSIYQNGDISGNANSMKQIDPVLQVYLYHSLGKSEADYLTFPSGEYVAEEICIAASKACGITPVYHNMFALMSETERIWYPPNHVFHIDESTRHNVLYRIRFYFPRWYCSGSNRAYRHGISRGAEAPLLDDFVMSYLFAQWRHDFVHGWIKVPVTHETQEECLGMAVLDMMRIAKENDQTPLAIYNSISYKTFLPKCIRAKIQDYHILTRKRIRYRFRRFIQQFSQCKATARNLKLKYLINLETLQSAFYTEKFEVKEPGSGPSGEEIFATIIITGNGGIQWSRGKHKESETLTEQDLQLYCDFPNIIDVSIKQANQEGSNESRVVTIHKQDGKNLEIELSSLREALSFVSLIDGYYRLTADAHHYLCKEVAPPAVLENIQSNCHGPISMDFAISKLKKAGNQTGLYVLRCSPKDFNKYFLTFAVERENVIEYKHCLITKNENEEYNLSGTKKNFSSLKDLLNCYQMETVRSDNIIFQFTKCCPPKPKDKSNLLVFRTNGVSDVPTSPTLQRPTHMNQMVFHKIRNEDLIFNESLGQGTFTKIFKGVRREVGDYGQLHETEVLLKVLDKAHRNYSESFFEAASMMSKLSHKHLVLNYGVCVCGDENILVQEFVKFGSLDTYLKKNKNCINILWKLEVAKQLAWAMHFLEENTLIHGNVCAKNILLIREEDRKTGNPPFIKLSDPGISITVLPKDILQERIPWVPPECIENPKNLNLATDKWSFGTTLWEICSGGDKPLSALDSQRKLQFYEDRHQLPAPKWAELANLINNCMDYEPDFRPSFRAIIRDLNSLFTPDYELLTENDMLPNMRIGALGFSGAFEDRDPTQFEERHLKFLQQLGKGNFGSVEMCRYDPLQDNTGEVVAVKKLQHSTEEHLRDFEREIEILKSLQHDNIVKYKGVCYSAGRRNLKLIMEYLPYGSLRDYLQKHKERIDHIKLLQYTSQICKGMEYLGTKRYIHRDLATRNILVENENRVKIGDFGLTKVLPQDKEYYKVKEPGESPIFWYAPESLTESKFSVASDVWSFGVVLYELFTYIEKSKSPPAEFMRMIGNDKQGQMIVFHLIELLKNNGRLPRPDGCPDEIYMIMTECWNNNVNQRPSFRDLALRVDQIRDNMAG
# [16] = biological target: Tyrosine-protein kinase FRK (Homo sapiens, UniProt P42685);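 note: FRK tested as one member of a kinome panel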
# [17] = biological target: Mitogen-activated protein kinase 13 (Homo sapiens, UniProt O15264)
# Mitogen-activated protein kinase 13, sequence (O15264 whole entry): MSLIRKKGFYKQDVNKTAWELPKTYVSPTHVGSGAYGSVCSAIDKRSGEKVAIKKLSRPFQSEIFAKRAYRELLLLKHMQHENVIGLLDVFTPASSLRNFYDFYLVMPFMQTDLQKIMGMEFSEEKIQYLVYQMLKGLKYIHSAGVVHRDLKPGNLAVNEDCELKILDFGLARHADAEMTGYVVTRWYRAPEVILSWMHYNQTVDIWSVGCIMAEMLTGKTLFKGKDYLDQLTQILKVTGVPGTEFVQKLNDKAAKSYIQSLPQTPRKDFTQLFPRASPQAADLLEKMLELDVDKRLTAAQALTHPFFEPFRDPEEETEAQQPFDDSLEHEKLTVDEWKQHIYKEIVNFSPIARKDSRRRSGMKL
# [18] = biological target: High affinity nerve growth factor receptor (Homo sapiens, UniProt P04629);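 note: NTRK1 tested as one member of a kinome-wide profiling panel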
# [19] = biological target: ALK tyrosine kinase receptor (Homo sapiens, UniProt Q9UM73);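 note: ALK tested as one member of a kinase panel screen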
# ALK tyrosine kinase receptor, sequence (Q9UM73 whole entry): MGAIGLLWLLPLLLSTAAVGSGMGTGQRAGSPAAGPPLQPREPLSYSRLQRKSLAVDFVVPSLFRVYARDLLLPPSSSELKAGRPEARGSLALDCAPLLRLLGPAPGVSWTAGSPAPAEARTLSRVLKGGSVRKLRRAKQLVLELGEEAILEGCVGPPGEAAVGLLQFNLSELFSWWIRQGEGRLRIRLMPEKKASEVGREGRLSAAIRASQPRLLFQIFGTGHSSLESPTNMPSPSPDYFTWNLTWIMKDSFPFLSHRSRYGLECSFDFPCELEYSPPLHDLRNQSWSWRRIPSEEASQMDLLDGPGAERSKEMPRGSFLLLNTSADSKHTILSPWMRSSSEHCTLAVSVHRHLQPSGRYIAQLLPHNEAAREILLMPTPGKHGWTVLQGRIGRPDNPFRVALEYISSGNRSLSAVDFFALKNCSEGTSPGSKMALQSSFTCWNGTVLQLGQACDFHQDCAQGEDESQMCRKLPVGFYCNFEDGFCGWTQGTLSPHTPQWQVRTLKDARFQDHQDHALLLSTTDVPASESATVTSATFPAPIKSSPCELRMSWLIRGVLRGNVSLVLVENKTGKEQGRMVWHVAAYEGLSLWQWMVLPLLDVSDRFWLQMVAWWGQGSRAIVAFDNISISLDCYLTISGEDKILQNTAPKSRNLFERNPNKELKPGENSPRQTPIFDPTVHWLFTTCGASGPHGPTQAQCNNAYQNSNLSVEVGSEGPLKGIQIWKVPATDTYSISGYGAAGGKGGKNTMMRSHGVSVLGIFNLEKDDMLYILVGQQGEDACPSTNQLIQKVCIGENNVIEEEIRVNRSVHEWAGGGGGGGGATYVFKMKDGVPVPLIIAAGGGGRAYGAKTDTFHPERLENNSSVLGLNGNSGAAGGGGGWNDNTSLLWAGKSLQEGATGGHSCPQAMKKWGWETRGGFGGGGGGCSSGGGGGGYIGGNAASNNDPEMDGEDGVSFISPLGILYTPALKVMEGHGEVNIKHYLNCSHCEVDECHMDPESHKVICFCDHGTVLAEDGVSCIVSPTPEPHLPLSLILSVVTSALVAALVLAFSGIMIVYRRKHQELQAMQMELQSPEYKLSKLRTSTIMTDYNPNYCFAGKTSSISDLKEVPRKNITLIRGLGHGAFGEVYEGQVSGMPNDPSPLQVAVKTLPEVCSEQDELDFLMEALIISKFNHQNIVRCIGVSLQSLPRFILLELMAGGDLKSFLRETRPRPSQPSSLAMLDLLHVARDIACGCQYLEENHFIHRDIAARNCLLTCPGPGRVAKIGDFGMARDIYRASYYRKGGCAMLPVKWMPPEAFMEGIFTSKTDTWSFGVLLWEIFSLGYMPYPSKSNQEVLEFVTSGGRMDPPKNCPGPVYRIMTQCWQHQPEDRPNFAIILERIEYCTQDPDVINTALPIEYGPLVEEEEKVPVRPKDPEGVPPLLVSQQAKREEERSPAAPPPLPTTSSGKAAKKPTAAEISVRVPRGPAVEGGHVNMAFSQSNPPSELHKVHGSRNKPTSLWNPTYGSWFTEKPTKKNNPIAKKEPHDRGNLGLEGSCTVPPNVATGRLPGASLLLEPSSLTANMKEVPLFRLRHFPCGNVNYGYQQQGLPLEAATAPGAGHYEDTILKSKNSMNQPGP
# [20] = biological target: Cyclin-dependent kinase 19 (Homo sapiens, UniProt Q9BWU1); test: Navigating the Kinome. Panel member name: CDC2L6
# Cyclin-dependent kinase 19, sequence (Q9BWU1 whole entry): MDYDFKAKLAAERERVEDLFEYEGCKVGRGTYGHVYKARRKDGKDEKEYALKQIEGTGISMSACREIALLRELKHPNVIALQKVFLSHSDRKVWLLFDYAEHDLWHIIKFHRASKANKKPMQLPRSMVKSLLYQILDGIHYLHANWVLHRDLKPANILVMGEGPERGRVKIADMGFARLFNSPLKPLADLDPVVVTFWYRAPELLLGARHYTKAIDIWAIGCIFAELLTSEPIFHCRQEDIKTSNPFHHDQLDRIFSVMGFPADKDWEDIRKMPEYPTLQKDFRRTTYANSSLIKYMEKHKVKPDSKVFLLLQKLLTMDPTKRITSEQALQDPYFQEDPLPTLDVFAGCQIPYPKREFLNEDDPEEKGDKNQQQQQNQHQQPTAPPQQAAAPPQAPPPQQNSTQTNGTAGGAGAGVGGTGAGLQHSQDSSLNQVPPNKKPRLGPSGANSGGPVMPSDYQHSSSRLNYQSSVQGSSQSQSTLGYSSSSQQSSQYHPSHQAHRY
# Wee1-like protein kinase = Wee1-like protein kinase (Homo sapiens, UniProt P30291); test: Navigating the Kinome. Panel member name: WEE1
# [21] = biological target: Tyrosine-protein kinase SYK (Homo sapiens, UniProt P43405)
# [22] = biological target: Mitogen-activated protein kinase kinase kinase kinase 4 (Homo sapiens, UniProt O95819)
# Mitogen-activated protein kinase kinase kinase kinase 4, sequence (O95819 whole entry): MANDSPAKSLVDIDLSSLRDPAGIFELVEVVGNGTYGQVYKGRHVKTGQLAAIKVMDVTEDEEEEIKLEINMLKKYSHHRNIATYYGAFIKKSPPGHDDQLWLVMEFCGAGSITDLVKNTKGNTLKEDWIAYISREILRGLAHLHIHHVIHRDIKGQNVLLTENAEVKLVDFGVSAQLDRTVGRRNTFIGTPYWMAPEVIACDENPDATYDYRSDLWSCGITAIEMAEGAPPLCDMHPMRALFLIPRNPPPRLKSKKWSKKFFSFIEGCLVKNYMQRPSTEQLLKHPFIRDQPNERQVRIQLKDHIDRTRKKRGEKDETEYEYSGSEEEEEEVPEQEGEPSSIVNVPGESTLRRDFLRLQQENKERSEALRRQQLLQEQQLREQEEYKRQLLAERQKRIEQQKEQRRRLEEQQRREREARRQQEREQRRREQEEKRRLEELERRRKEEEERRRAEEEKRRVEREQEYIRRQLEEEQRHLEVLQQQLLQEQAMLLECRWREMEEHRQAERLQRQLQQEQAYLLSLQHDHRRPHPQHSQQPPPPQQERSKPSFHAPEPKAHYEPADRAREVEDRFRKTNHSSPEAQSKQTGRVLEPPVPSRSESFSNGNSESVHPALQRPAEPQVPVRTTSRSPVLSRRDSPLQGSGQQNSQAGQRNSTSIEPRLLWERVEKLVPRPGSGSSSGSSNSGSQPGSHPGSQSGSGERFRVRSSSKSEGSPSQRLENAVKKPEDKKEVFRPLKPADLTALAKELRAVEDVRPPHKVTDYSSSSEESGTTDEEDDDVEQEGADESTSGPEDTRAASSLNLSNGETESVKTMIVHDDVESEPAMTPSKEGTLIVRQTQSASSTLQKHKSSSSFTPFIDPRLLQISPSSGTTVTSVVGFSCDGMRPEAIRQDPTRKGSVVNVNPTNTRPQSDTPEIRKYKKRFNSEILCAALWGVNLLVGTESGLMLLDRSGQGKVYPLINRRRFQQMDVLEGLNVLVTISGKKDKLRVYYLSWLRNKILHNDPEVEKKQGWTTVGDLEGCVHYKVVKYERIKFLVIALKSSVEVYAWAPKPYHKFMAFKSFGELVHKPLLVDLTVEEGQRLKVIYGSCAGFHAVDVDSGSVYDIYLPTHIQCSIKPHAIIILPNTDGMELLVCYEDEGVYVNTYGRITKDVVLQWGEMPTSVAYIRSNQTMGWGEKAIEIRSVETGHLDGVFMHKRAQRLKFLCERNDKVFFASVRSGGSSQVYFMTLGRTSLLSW
# [23] = biological target: Serine/threonine-protein kinase D3 (Homo sapiens, UniProt O94806);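 note: determined within a kinase panel screen, with PRKCN as the panel member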
# [24] = biological target: Serine/threonine-protein kinase D2 (Homo sapiens, UniProt Q9BZL6);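 note: measured against PRKD2 as one member of a kinome-wide kinase profiling panel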
# [25] = biological target: Rho-associated protein kinase 1 (Homo sapiens, UniProt Q13464);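 note: measured within a broad kinome-wide panel profiling many kinases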
compound,measurement,setting,value
Cc1cc(C)c(C(=O)Nc2ccc(S(=O)(=O)Nc3ccccn3)cc2)c(C)c1,IC50,[1],4070 nM (active)
same,IC50,[2],2700 nM (active)
O=C(Nc1ccccc1)Nc1nccs1,EC50,[3],> 50000 nM (active)
same,Ki,Aurora kinase A,15800 nM (active)
same,Ki,[4],10000 nM (active)
Cc1cccc2c1N(CCCOc1ccc(C(C)(C)C)cc1)C(=O)C2=O,IC50,[5],24300 nM (inactive)
same,IC50,[6],> 66600 nM (inactive)
same,IC50,Apelin receptor,> 66600 nM (inactive)
O=C1ON=C(c2ccc(Br)cc2)C1=Cc1ccc2c(c1)OCO2,Ki,[7],7940 nM (active)
same,Ki,[8],10000 nM (active)
same,Ki,[9],1580 nM (active)
same,Ki,[10],2000 nM (active)
COc1cccc(C(C)NC(=O)c2ccc(-c3ccncc3)cc2)c1 (stereo unspecified),Ki,[11],> 2510 nM (inactive)
same,Ki,Activin receptor type-1,> 3980 nM (inactive)
same,Ki,[12],> 2510 nM (inactive)
same,Ki,[13],> 2510 nM (inactive)
same,Ki,[14],> 2510 nM (inactive)
same,Ki,[15],> 2510 nM (inactive)
same,Ki,[16],> 2510 nM (inactive)
same,Ki,[17],> 7940 nM (inactive)
same,Ki,[18],> 2510 nM (inactive)
Cc1ccc(NC(=O)Nc2ccc(-c3csc4c(-c5cnn(CC(=O)N(C)C)c5)cnc(N)c34)cc2)cc1,Ki,[19],158 nM (active)
same,Ki,[20],> 100000 nM (inactive)
Cc1cnc(Nc2ccc(N3CCN(C)CC3)cc2)nc1Nc1cccc(S(=O)(=O)NC(C)(C)C)c1,Ki,Wee1-like protein kinase,126 nM (active)
same,Ki,[19],501 nM (active)
CCN(CC)CCOc1ccc(Nc2ncc3cc(-c4c(Cl)cccc4Cl)c(=O)n(C)c3n2)cc1 [PD-0166285],Ki,[15],39.8 nM (active)
same,Ki,[21],79.4 nM (active)
same,Ki,[22],79.4 nM (active)
NC(=O)c1ccc(N(C(N)=O)c2c(F)cccc2F)nc1-c1ccc(F)cc1F [VX-702],Ki,[23],2510 nM (active)
same,Ki,[24],5010 nM (active)
same,Ki,[25],2510 nM (active)
